According to ChEMBL document CHEMBL1201862, “PubChem BioAssay data set” (2004):
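96-well plates; 48 h exposure; 5 concentrations. Endpoints by linear interpolation between flanking doses. Not reached: highest tested concentration assigned. GI50 = concentration required for 50% inhibition of growth.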 Calls of active or inactive are those of the source. No stated cut-off is given here; in the data, active = GI50 up to about 1.1 µM and inactive = higher.

Legend:
Assay in all cases: DTP human tumour cell line panel, 48 h
HOP-62 = test system: HOP-62
A498 = test system: A498
HCT-15 = test system: HCT-15
EKVX = test system: EKVX
IGROV-1 = test system: IGROV-1
KM12 = test system: KM12
SK-MEL-2 = test system: SK-MEL-2
UACC-257 = test system: UACC-257
LOX IMVI = test system: LOX IMVI
HL-60 = test system: HL-60
UO-31 = test system: UO-31
786-0 = test system: 786-0
SW-620 = test system: SW-620
SF-539 = test system: SF-539
SR = test system: SR
UACC-62 = test system: UACC-62
COLO 205 = test system: COLO 205
SN12C = test system: SN12C
Malme-3M = test system: Malme-3M
SNB-19 = test system: SNB-19
XF498 = test system: XF498
CCRF-CEM = test system: CCRF-CEM
HCC 2998 = test system: HCC 2998
NCI-H522 = test system: NCI-H522
HCT-116 = test system: HCT-116
CAKI-1 = test system: CAKI-1
RPMI-8226 = test system: RPMI-8226
U-251 = test system: U-251
SF-268 = test system: SF-268
NCI-H23 = test system: NCI-H23
HT-29 = test system: HT-29
A549 = test system: A549
OVCAR-8 = test system: OVCAR-8
SNB-78 = test system: SNB-78
KM-20L2 = test system: KM-20L2
SK-OV-3 = test system: SK-OV-3
M14 = test system: M14
SK-MEL-5 = test system: SK-MEL-5
NCI-H226 = test system: NCI-H226
OVCAR-3 = test system: OVCAR-3
M19-MEL = test system: M19-MEL
OVCAR-5 = test system: OVCAR-5
ACHN = test system: ACHN
SF-295 = test system: SF-295
NCI-H460 = test system: NCI-H460
MOLT-4 = test system: MOLT-4
OVCAR-4 = test system: OVCAR-4
TK-10 = test system: TK-10
K562 = test system: K562
SK-MEL-28 = test system: SK-MEL-28
LXFL 529 = test system: LXFL 529
DMS-114 = test system: DMS-114
SNB-75 = test system: SNB-75
DMS-273 = test system: DMS-273
DLD-1 = test system: DLD-1

COc1cc(/C=C(\C#N)C(=O)c2ccccc2)ccc1O
GI50 (HOP-62): > 100 µM (inactive) | GI50 (A498): > 100 µM (inactive) | GI50 (HCT-15): > 100 µM | GI50 (EKVX): > 100 µM (inactive) | GI50 (IGROV-1): > 100 µM (inactive) | GI50 (KM12): > 100 µM (inactive) | GI50 (SK-MEL-2): > 100 µM (inactive) | GI50 (UACC-257): > 100 µM (inactive) | GI50 (LOX IMVI): > 100 µM (inactive) | GI50 (HL-60): 46.6 µM (inactive) | GI50 (UO-31): > 100 µM (inactive) | GI50 (786-0): > 100 µM (inactive) | GI50 (SW-620): > 100 µM (inactive) | GI50 (SF-539): > 100 µM (inactive) | GI50 (SR): > 100 µM (inactive) | GI50 (UACC-62): > 100 µM (inactive) | GI50 (COLO 205): > 100 µM (inactive) | GI50 (SN12C): > 100 µM (inactive) | GI50 (Malme-3M): > 100 µM (inactive) | GI50 (SNB-19): > 100 µM (inactive) | GI50 (XF498): > 100 µM (inactive) | GI50 (CCRF-CEM): 82.8 µM (inactive) | GI50 (HCC 2998): > 100 µM (inactive) | GI50 (NCI-H522): > 100 µM (inactive) | GI50 (HCT-116): > 100 µM (inactive) | GI50 (CAKI-1): > 100 µM (inactive) | GI50 (RPMI-8226): > 100 µM (inactive) | GI50 (U-251): > 100 µM (inactive) | GI50 (SF-268): > 100 µM (inactive) | GI50 (NCI-H23): > 100 µM (inactive) | GI50 (HT-29): > 100 µM (inactive) | GI50 (A549): > 100 µM (inactive) | GI50 (OVCAR-8): > 100 µM (inactive) | GI50 (SNB-78): > 100 µM (inactive) | GI50 (KM-20L2): > 100 µM (inactive) | GI50 (SK-OV-3): > 100 µM (inactive) | GI50 (M14): > 100 µM (inactive) | GI50 (SK-MEL-5): > 100 µM (inactive) | GI50 (NCI-H226): > 100 µM (inactive) | GI50 (OVCAR-3): 34.4 µM (inactive) | GI50 (M19-MEL): > 100 µM (inactive) | GI50 (OVCAR-5): > 100 µM (inactive) | GI50 (ACHN): > 100 µM (inactive) | GI50 (SF-295): > 100 µM (inactive) | GI50 (NCI-H460): > 100 µM (inactive) | GI50 (MOLT-4): > 100 µM (inactive) | GI50 (OVCAR-4): > 100 µM (inactive) | GI50 (TK-10): > 100 µM (inactive) | GI50 (K562): > 100 µM (inactive) | GI50 (SK-MEL-28): > 100 µM (inactive) | GI50 (LXFL 529): > 100 µM (inactive)

CCOC(=O)c1ccn2c(c1)c(C#N)c1nc3ccccc3nc12
GI50 (HOP-62): > 100 µM (inactive) | GI50 (A498): 85.5 µM (inactive) | GI50 (HCT-15): 41.6 µM | GI50 (EKVX): 70.6 µM (inactive) | GI50 (IGROV-1): 5.4 µM (inactive) | GI50 (KM12): 51.6 µM (inactive) | GI50 (SK-MEL-2): > 100 µM (inactive) | GI50 (DMS-114): 52.2 µM (inactive) | GI50 (UACC-257): > 100 µM (inactive) | GI50 (LOX IMVI): 29.2 µM (inactive) | GI50 (HL-60): 38.8 µM (inactive) | GI50 (UO-31): 42.4 µM (inactive) | GI50 (786-0): > 100 µM (inactive) | GI50 (SW-620): 50 µM (inactive) | GI50 (SF-539): > 100 µM (inactive) | GI50 (SR): 32.6 µM (inactive) | GI50 (UACC-62): 0.908 µM (active) | GI50 (COLO 205): 48.2 µM (inactive) | GI50 (SN12C): 83.8 µM (inactive) | GI50 (Malme-3M): 76 µM (inactive) | GI50 (SNB-19): 61 µM (inactive) | GI50 (XF498): 33.7 µM (inactive) | GI50 (CCRF-CEM): 18.5 µM (inactive) | GI50 (HCC 2998): 53.1 µM (inactive) | GI50 (NCI-H522): 45.3 µM (inactive) | GI50 (HCT-116): 46.8 µM (inactive) | GI50 (CAKI-1): 54.5 µM (inactive) | GI50 (RPMI-8226): 43.6 µM (inactive) | GI50 (U-251): 76.7 µM (inactive) | GI50 (SF-268): > 100 µM (inactive) | GI50 (NCI-H23): 37.2 µM (inactive) | GI50 (A549): 50.1 µM (inactive) | GI50 (SNB-75): 13.3 µM (inactive) | GI50 (OVCAR-8): 32.1 µM (inactive) | GI50 (SNB-78): 15.5 µM (inactive) | GI50 (KM-20L2): 71.9 µM (inactive) | GI50 (SK-OV-3): 55.1 µM (inactive) | GI50 (M14): > 100 µM (inactive) | GI50 (SK-MEL-5): 35.6 µM (inactive) | GI50 (OVCAR-3): > 100 µM (inactive) | GI50 (M19-MEL): 61.8 µM (inactive) | GI50 (OVCAR-5): > 100 µM (inactive) | GI50 (ACHN): 55.5 µM (inactive) | GI50 (NCI-H460): 28.6 µM (inactive) | GI50 (MOLT-4): 18.1 µM (inactive) | GI50 (OVCAR-4): 91 µM (inactive) | GI50 (DMS-273): 37.2 µM (inactive) | GI50 (TK-10): 75.9 µM (inactive) | GI50 (DLD-1): 27.4 µM (inactive) | GI50 (K562): 33.9 µM (inactive) | GI50 (SK-MEL-28): > 100 µM (inactive) | GI50 (LXFL 529): 31.6 µM (inactive)
